Patent US8802414B2, “Methods and materials for reducing biofilms” (priority 2007, dated 2014)
“Also recorded” adds a separate entry of the source.

What was measured:
S. aureus SA113 = test: Microtiter plate biofilm formation assay; format: cell-based, Staphylococcus aureus
Protocol: (§1) Bacteria stored at −70° C. were freshly streaked on sheep's blood agar or trypticase soy agar before each replicate experiment. For microtiter plate biofilm formation and detachment assays, immunodetection assays, and confocal microscopy assays (unless stated otherwise), isolated colonies from 16 to 24 hour-old plates were grown in trypticase soy broth (BD BBL, Franklin Lakes, N.J.) supplemented with 1% (w/v) sterile-filtered glucose (TSBgluc1%) with shaking at 130 rpm for 22-24 hours. Unless otherwise noted, all experiments were incubated in ambient air at 37° C.
(§2) Biofilm formation was assayed using a microtiter plate assay as described elsewhere (Christensen et al., J. Clin. Microbiol., 22:996-1006 (1985)), with modifications as described elsewhere (Chaignon et al., Appl. Microbiol. Biotechnol., 75(1):125-132 (2007) and Frank and Patel, Diagn. Microbiol. Infect. Dis., 57:355-359 (2007)). Briefly, cultures were adjusted with TSBgluac1% to match the turbidity of a 1.0 McFarland standard (˜1-2×10^8 cfu/mL) and diluted 1:50 in TSBgluc1% or TSBgluc1% containing various concentrations of sodium chloride (1-5%, w/v) or ethanol (0.5-4%, v/v). For experiments examining the effect of glucose concentration on biofilm formation, bacteria were grown overnight, adjusted to 1.0 McFarland, and diluted in TSB containing the corresponding amount of glucose being tested (0.5-5%, w/v). 200 μL aliquots of each diluted culture were placed into four wells of 96-well microtiter plates (Nuclon Delta, Nalge Nunc International, Rochester, N.Y.), and incubated for 24 hours. Cell growth was measured by reading the OD600 nm on a microplate reader (Multiskan, Thermo Electron, Waltham, Mass.). Culture media was discarded, and wells were washed twice by fully submerging plates in deionized water to remove non-adherent cells and allowed to air-dry overnight. Biofilms remaining in the wells were stained with 0.1% safranin for 1 minute, rinsed under running tap water to remove excess stain, and air-dried overnight. In order to ensure homogeneity among stained material in the wells, stained biofilms were resuspended in 200 μL of 30 percent glacial acetic acid, and the OD492 nm was measured.

[1] = system: S. lugdunensis clinical isolates; test: Microtiter plate biofilm formation assay; format: cell-based, Staphylococcus lugdunensis
Protocol: as §1, §2

S. epidermidis RP62A = test: Microtiter plate biofilm formation assay; format: cell-based, Staphylococcus epidermidis
Protocol: as §1, §2

[2] = system: pre-formed S. lugdunensis biofilms; test: Microtiter plate biofilm detachment assay; format: cell-based, Staphylococcus lugdunensis
Protocol: 40 mM sodium metaperiodate (NaIO4, Sigma-Aldrich) in water, 40 μg/mL purified recombinant dispersin B (obtained from Kane Biotech Inc., Winnipeg, Manitoba, Canada) in sodium phosphate buffer (50 mM sodium phosphate (pH 5.8), 100 mM NaCl), 100 μg/mL proteinase K (Roche Applied Science) in 10 mM Tris-HCl pH 7.5, 10 U/mL trypsin (Promega Corp., Madison, Wis.) in 10 mM Tris-HCl pH 7.5, 100 μg/mL chymotrypsin (Sigma-Aldrich) in 10 mM Tris-HCl pH 7.5, and 100 μg/mL thermolysin (Sigma-Aldrich) in 10 mM Tris-HCl pH 7.5 were tested for their ability to detach pre-formed S. lugdunensis biofilms from polystyrene microtiter plate wells. For certain experiments, proteinase K was inactivated by boiling for 40 minutes.
Biofilms grown in TSBgluc1% were formed in wells of microtiter plates and washed twice with deionized water, as described above for the microtiter plate biofilm formation assay. 100 μL of NaIO4, enzyme, or suitable control was carefully added so as not to mechanically detach biofilms on the bottoms of wells. Plates were incubated at 37° C. for 2 hours, and contents of wells were discarded and washed twice with deionized water. Plates were air-dried overnight, stained with 0.1% safranin for 1 minute, and processed as described above to quantify the amount of stained biofilm remaining after treatment, relative to treatment with the control reagent. Four wells were measured for each treatment condition. Assays were repeated two or three times on separate days with similar results.

[3] = system: pre-formed biofilms of S. epidermidis RP62A; test: Microtiter plate biofilm detachment assay; format: cell-based, Staphylococcus epidermidis; conditions: 2 hours at 37° C.; safranin OD492
[4] = system: pre-formed biofilms of S. carnosus TM300+pCN27; test: Microtiter plate biofilm detachment assay; format: cell-based, Staphylococcus carnosus; conditions: 2 hours at 37° C.; safranin OD492
[5] = increasing ethanol concentrations (0.5-4% v/v) in TSBgluc1%
[6] = increasing salt concentrations (1-5% sodium chloride)
[7] = 2 hours at 37° C., safranin OD492, 15 clinical isolates

Molecule: CCO [ethanol]
- biofilm production (S. aureus SA113; [5]): significant reductions in biofilm production
- adherence ([1]; 2% ethanol, all S. lugdunensis that formed measurable baseline biofilms): prevent the adherence
- killing / growth of isolates ([1]; 2% ethanol, isolates IDRL-2554, IDRL-2640 and IDRL-5254 only): killed; also recorded: inhibited growth
- killing of bacteria ([1]; 4% ethanol, all S. lugdunensis isolates): bactericidal
- levels of biofilm production ([1]; most ethanol concentrations, isolates with baseline biofilm OD492 >=0.150): reduced the levels of biofilm production
- biofilm production (S. epidermidis RP62A; [5]): significant reductions in biofilm production

Molecule: [Cl-].[Na+] [sodium chloride]
- biofilm compared to baseline biofilm formation (S. aureus SA113; 5% sodium chloride): significantly reduced, yet still discernable
- biofilm levels (S. aureus SA113; TSBgluc1% with 1-2% sodium chloride): increase
- growth (optical density of the biomass in each well) (S. aureus SA113; [6]): not affected
- biofilm formation ([1]; 5% sodium chloride): Essentially no measurable quantity of biofilm could be detected
- S. lugdunensis isolates that formed more biofilm ([1]; TSBgluc1% containing 1 or 2% sodium chloride, 11/15 isolates): 73%
- adherence to microtiter wells ([1]; higher concentrations of salt (above 2% sodium chloride)): substantially reduced
- growth (optical density of the biomass in each well) [1, 6]: not affected
- biofilm compared to baseline biofilm formation (S. epidermidis RP62A; 5% sodium chloride): not affected
- biofilm levels (S. epidermidis RP62A; TSBgluc1% with 1-3% sodium chloride): increase
- growth (optical density of the biomass in each well) (S. epidermidis RP62A; [6]): not affected

Molecule: [Na+].[O-][I+3]([O-])([O-])[O-] [sodium metaperiodate]
- S. lugdunensis biofilms on whose release there was moderate to little effect ([2]; 40 mM, 2 hours at 37° C., 8/15 isolates): 53%
- biofilm detachment compared to buffer ([2]; seven isolates IDRL-2394, IDRL-2526, IDRL-2554, IDRL-2588, IDRL-2622, IDRL-2640, IDRL-5258, 40 mM, 2 hours): greater susceptibility
- biofilm detachment compared to buffer [3]: substantial detachment
- biofilm detachment compared to buffer [4]: essentially completely released

Molecule: chymotrypsin
- biofilm detachment compared to buffer [2, 7]: detach S. lugdunensis biofilms selectively

Molecule: trypsin
- biofilm detachment compared to buffer [2, 7]: Concordant results
- biofilm release ([2]; isolates IDRL-2414 and IDRL-2526, 10 U/mL, 2 hours at 37° C.): noticeably more resistant to release
- biofilm detachment compared to buffer [3]: Concordant results
- biofilm detachment compared to buffer [4]: Concordant results
